According to patent US20230414701A1, “COMPOSITION FOR PREVENTING, AMELIORATING, OR TREATING COGNITIVE DYSFUNCTION DISEASE, COMPRISING PEPTIDE HAVING SYNAPTIC PLASTICITY CONTROL FUNCTION” (UIF (University Industry Foundation), Yonsei University, priority 2020, published 2023):

Assays:
CCNY protein = CCNY protein (Homo sapiens, UniProt Q8ND76); assay: ELISA of binding capacity of peptides to CCNY; conditions: treated at 10, 100 or 1000 μg/mL; CCNY immobilized on plate; FIG. 5
Method: To examine which of MIC-1 and cyclo MIC-1 according to the present invention easily binds to CCNY, the present inventors conducted an experiment using ELISA. To this end, CCNY was immobilized on a plate, MIC-1 and cyclo MIC-1 were treated at 10, 100 or 1000μg/mL, biotin was bound to the MIC-1 and cyclo MIC-1, and then the optical density of HRP was measured after treating streptavidin-HRP.

[1] = system: hippocampal tissue section from APP/PS1 Alzheimer's disease animal model; assay: fEPSP amplitude (long-term potentiation) in hippocampal tissue sections; design: species or system mouse; conditions: 1 μM, 1 hour and 40 minutes, compared to control peptide material; FIG. 6
Method: Specifically, the brain was extracted from an APP/PS1 Alzheimer's disease animal model, and then transferred to a 4° C. sucrose-artificial cerebrospinal fluid solution (195.5 sucrose, 2.5 KC1, 1 NaH2PO4, 32.5 NaHCO3, 11 glucose, 2 NaPyruvate, 1 NaL-ascorbate, 5 MgSO4, 0.5 CaCl2 (95% O2/5% CO2). Subsequently, brain tissue was cut into coronal sections (400 μm) using a microtome, a hippocampal tissue section was transferred to a 35° C. artificial cerebrospinal fluid solution (128.5 NaCl2, 2.5 KCl, 1 NaH2PO4, 21.7 NaHCO3, 11 glucose, 2 NaPyruvate, 1 NaL-ascorbate, 5 MgSO4, 1 CaCl2 (95% O2/5% CO2)) and incubated for 30 minutes to restore the function of the tissue. Subsequently, an experiment was performed for 1 hour and 40 minutes while flowing MIC-1 according to the present invention at a concentration of 1 μM from the beginning until the end of the experiment using gravity, and then the amplitude of field excitatory postsynaptic potential (fEPSP) was measured.

PSD-95 protein = assay: Western blotting of PSD-95 protein expression in Aβ42-treated cells; assay type: cell-based; conditions: FIG. 7
Method: To identify what role MIC-1 plays in improving the cognitive function of MIC-1 according to the present invention, the present inventors, as shown in Example 5, an experiment was performed as follows. Specifically, the change in expression level of the PSD-95 protein known to play an important role in cognitive function was analyzed through Western blotting using a 12% acrylamide gel. For example, it is known that, when cells are treated with Aβ42, compared to normal cells, the amount of PSD-95 protein decreases and cognitive function decreases, resulting in deterioration of memory.

ICR mouse models = assay: Y-maze behavioral experiment, scopolamine-induced memory loss; assay type: in vivo; conditions: 20 mpK intravenous twice for one week, then scopolamine 1 mpK i.p. 30 minutes before test; 7-week-old male ICR mice; FIG. 8
Method: In Example 6-1, it was confirmed that MIC-1 can enhance the expression level of the PSD-95 protein known to be associated with cognitive function, and based on this, a behavioral experiment for mouse models was designed. Specifically, among ICR mouse models, 7-week-old male mouse models were used and divided into a control and two experimental groups (scopolamine-treated group and group administered MIC-1 and then treated with scopolamine) to perform the experiment.
MIC-1 was administered into a mouse twice via intravenous administration at 20 mpK for one week. […] Therefore, to induce such memory loss, 30 minutes before the Y-maze behavioral experiment, scopolamine was intraperitoneally administered at 1 mpK to the experimental groups, resulting in memory deterioration.

Chain of CCNY protein (Q8ND76 whole entry, species assumed): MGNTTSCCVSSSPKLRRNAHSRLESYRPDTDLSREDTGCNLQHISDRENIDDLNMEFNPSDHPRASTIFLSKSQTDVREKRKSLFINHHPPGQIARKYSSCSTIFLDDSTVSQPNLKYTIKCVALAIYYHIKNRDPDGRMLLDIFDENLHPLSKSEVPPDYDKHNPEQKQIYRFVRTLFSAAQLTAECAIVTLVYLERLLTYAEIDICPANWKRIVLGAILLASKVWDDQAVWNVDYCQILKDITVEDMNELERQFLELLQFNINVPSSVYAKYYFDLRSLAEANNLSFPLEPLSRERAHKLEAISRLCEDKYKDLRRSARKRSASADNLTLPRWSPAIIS

Substance: MIC-1: Peptide of SEQ ID NO: 1 (PFTAIRE sequence of Cdk14) in which both termini are modified (Ac-PFTAIRE-NH2)
- binding to the CCNY protein (ELISA, optical density of HRP) (CCNY protein): can remarkably bind to the CCNY protein
- fEPSP amplitude [1]: the fEPSP amplitude increases
- level of the PSD-95 protein (PSD-95 protein): the level of the PSD-95 protein is increased
- alternation (memory) in Y-maze (ICR mouse models): the memory is improved up to the control level
